In patent US11773129B2, “Methods of preventing or treating atherosclerosis with inhibitors of specific isoenzymes of human neuraminidase” (THE GOVERNORS OF THE UNIVERSITY OF ALBERTA, priority 2017, dated 2023):
Like-named read-outs stand apart in the source and are kept apart here.

Columns and labels:
Assay type in all cases: biochemical
NEU1 = biological target: T1, NEU1 (Homo sapiens, UniProt Q99519); assay: IC50 inhibition assay using 4MU-NANA as the substrate, NEU1
T1 construct: made in house; host or cells: HEK293 (lentiviral transduction), crude lysate
Protocol: Two weeks after transduction cells were harvested and a crude lysate showing ˜200 nmol/h mg of sialidase activity used in experiments.
Assays were performed with duplicates for each point and IC50 was obtained by plotting the data with Graphpad™ Prism 5.0.

NEU3 = biological target: T2, NEU3 (Homo sapiens, UniProt Q9UQ49); assay: IC50 inhibition assay using 4MU-NANA as the substrate, NEU3; design: MBP (N); made in house; host or cells: E. coli; details: 4MU-NANA as the substrate; read-out: IC50 NEU3
T2 sequence (Q9UQ49 1-428): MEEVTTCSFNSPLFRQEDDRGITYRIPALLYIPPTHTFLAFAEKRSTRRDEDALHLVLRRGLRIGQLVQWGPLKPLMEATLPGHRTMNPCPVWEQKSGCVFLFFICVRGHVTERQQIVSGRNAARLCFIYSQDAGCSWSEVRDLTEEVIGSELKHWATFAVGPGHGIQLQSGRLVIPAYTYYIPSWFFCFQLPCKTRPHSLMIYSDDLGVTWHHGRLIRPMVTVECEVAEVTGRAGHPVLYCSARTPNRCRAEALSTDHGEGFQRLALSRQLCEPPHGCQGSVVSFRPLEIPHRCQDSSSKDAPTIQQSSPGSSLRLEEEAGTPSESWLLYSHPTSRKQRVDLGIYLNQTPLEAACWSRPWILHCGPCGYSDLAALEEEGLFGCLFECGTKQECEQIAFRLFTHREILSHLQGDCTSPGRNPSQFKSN

NEU4 = biological target: T3, NEU4 (Homo sapiens, UniProt Q8WWR8); assay: IC50 inhibition assay using 4MU-NANA as the substrate, NEU4; design: GST; made in house; host or cells: E. coli; details: 4MU-NANA as the substrate; read-out: IC50 NEU4
T3 sequence (Q8WWR8 1-484): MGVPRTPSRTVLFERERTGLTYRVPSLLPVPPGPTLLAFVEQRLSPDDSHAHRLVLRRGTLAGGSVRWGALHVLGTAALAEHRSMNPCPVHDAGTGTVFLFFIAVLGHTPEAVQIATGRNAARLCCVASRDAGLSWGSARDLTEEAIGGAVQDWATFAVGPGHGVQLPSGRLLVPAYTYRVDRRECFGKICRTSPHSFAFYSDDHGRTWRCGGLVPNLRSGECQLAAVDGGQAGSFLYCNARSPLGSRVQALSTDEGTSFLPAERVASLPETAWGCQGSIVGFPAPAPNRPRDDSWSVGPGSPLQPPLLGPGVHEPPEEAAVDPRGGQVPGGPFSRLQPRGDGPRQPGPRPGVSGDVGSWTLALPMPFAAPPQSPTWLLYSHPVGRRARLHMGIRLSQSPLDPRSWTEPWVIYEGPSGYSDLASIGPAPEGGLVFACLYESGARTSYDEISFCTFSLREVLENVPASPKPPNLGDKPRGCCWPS

NEU1, NEU2, NEU3, NEU4 = assay: Isoenzyme specificity/selectivity from 4MU-NANA IC50 across the four human neuraminidases
[1] = 4MU-NANA as the substrate, read-out: IC50 NEU1
[2] = isoenzyme(s) the compound is specific for, dual (bispecific) when ratio of IC50 is about 3 or less

## Cc1ccc(-c2cn(CC(=O)N[C@@H]3C(O)C=C(C(=O)O)OC3C(O)C(O)CO)nn2)cc1 (stereo partly shown) [compound 42]
NEU1; [1]
  IC50: > 500 µM
NEU3
  IC50: > 500 µM
NEU4
  IC50: 110 ± 20 µM

## CCCCCC(=O)N[C@H]1[C@H]([C@H](O)[C@H](O)CNC(=O)CCC)OC(C(=O)O)=C[C@@H]1O [compound 70, 5-Hexanamido-9-butanamido-2,6-anhydro-3,5-dideoxy-D-glycero-D-galacto-non-2-enonic acid]
NEU1, NEU2, NEU3, NEU4; [2]
  Target: NEU1
NEU1; [1]
  IC50: 1.2 ± 0.1 µM
NEU3
  IC50: > 500 µM
NEU4
  IC50: > 500 µM

## CCCCC(=O)N[C@H]1[C@H]([C@H](O)[C@H](O)CNC(C)=O)OC(C(=O)O)=C[C@@H]1O [compound 67, 5-Pentanamido-9-acetamido-2,6-anhydro-3,5-dideoxy-D-glycero-D-galacto-non-2-enonic acid]
NEU1, NEU2, NEU3, NEU4; [2]
  Target: NEU1
NEU1; [1]
  IC50: 0.35 ± 0.03 µM
NEU4
  IC50: > 500 µM

## CCCCCc1cn(C[C@@H](O)[C@@H](O)[C@@H]2OC(C(=O)O)=C[C@H](O)[C@H]2NC(C)=O)nn1 [compound 63, 5-Acetamido-9-(4-pentyl)triazolyl-2,6-anhydro-3,5-dideoxy-d-glycero-d-galacto-non-2-enonic acid]
NEU1, NEU2, NEU3, NEU4; [2]
  Target: NEU3/ NEU4
NEU3
  IC50: 6.7 ± 1.2 µM
NEU4
  IC50: 2.6 ± 0.6 µM

## CCCCC(C)C(=O)N[C@H]1[C@H]([C@H](O)[C@H](O)CO)OC(C(=O)O)=C[C@@H]1O (mixture of isomers) [compound 72, 5-(2-Methyl)hexanamido(S/R)-2,6-anhydro-3,5-dideoxy-d-glycero-d-galacto-non-2-enonic acid]
NEU1; [1]
  IC50: 0.55 ± 0.07 µM
NEU3
  IC50: < 1 µM

## CCCCC(CC)C(=O)N[C@H]1[C@H]([C@H](O)[C@H](O)CO)OC(C(=O)O)=C[C@@H]1O (mixture of isomers) [compound 75, 5-(2-Ethyl)hexanamido(SIR)-2,6-anhydro-3,5-dideoxy-d-glycero-d-galacto-non-2-enonic acid]
NEU1; [1]
  IC50: 0.58 ± 0.03 µM
NEU3
  IC50: < 1 µM

## CCCC(=O)NCC(O)C(O)C1OC(C(=O)O)=CC(O)[C@H]1NC(C)=O (stereo partly drawn) [compound 49, 5-Acetamido-9-butyramido-2,6-anhydro-3,5-dideoxy-D-glycero-D-galacto-non-2-enonic acid]
NEU1; [1]
  IC50: 4 ± 0.5 µM
NEU3
  IC50: 250 ± 90 µM

## CCCCCC(=O)NC[C@@H](O)[C@@H](O)[C@@H]1OC(C(=O)O)=C[C@H](O)[C@H]1NC(=O)CCCCC [compound 64, 5-Hexanamido-9-hexanamido-2,6-anhydro-3,5-dideoxy-d-glycero-d-galacto-non-2-enonic acid]
NEU1, NEU2, NEU3, NEU4; [2]
  Target: NEU1
NEU1; [1]
  IC50: 4.3 ± 0.8 µM
NEU3
  IC50: > 500 µM
NEU4
  IC50: > 500 µM

## CC(=O)N[C@@H]1C(O)C=C(C(=O)O)OC1C(O)C(O)CNC(=O)CCC(C)C (stereo partly drawn) [compound 55, 5-Acetamido-9-(4-methylpentanamido)-2,6-anhydro-3,5-dideoxy-D-glycero-D-galacto-non-2-enonic acid]
NEU1, NEU2, NEU3, NEU4; [2]
  Target: NEU1
NEU1; [1]
  IC50: 3.2 ± 0.3 µM
NEU3
  IC50: 54 ± 6 µM
NEU4
  IC50: 150 ± 50 µM

## CC(=O)N[C@@H]1C(O)C=C(C(=O)O)OC1C(O)C(O)CNC(=O)c1ccccc1 (stereo partly drawn) [compound 56, 5-Acetamido-9-benzamido-2,6-anhydro-3,5-dideoxy-D-glycero-D-galacto-non-2-enonic acid]
NEU1, NEU2, NEU3, NEU4; [2]
  Target: NEU1
NEU1; [1]
  IC50: 2.5 ± 0.3 µM
NEU3
  IC50: 34 ± 5 µM
NEU4
  IC50: 150 ± 10 µM

## CCC(=O)N[C@H]1C=C(C(=O)O)O[C@@H]([C@H](O)[C@H](O)CO)[C@@H]1NC(C)=O [25a, 5-Acetamido-2,6-anhydro-4-propionamido-3,4,5-trideoxy-D-glycero-D-galacto-non-2-enonic acid]
NEU1; [1]
  IC50: > 500 µM
NEU3
  IC50: > 500 µM
NEU4
  IC50: > 500 µM

## CC(=O)N[C@@H]1C(O)C=C(C(=O)O)OC1C(O)C(O)CNC(=O)C(C)C (stereo partly drawn) [compound 53, 5-Acetamido-9-isobutyramido-2,6-anhydro-3,5-dideoxy-D-glycero-D-galacto-non-2-enonic acid]
NEU3
  IC50: 96 ± 28 µM
NEU4
  IC50: 230 ± 60 µM

## CC(=O)N[C@@H]1C(O)C=C(C(=O)O)OC1C(O)C(O)CNC(=O)CC(C)C (stereo partly drawn) [compound 54, 5-Acetamido-9-(3-methylbutanamido)-2,6-anhydro-3,5-dideoxy-D-glycero-D-galacto-non-2-enonic acid]
NEU1; [1]
  IC50: 2.5 ± 0.3 µM
NEU3
  IC50: 72 ± 20 µM
NEU4
  IC50: 130 ± 40 µM

## CCCCC(C)C(=O)N[C@H]1[C@H]([C@H](O)[C@H](O)CNC(C)=O)OC(C(=O)O)=C[C@@H]1O (mixture of isomers) [compound 74, 5-(2-Methyl)hexanamido(S/R)-9-acetanamido-2,6-anhydro-3,5-dideoxy-d-glycero-d-galacto-non-2-enonic acid]
NEU1; [1]
  IC50: 0.42 ± 0.07 µM
NEU3
  IC50: < 1 µM

## CCCCCC(=O)N[C@H]1[C@H]([C@H](O)[C@H](O)CNC(C)=O)OC(C(=O)O)=C[C@@H]1O [compound 68, 5-Hexanamido-9-acetamido-2,6-anhydro-3,5-dideoxy-D-glycero-D-galacto-non-2-enonic acid]
NEU1, NEU2, NEU3, NEU4; [2]
  Target: NEU1
NEU1; [1]
  IC50: 0.14 ± 0.01 µM
NEU4
  IC50: 170 ± 100 µM

## CC(=O)N[C@H]1[C@H]([C@H](O)[C@H](O)CO)OC(C(=O)O)=C[C@@H]1NC(=O)C1CCC1 [25d, 5-Acetamido-2,6-anhydro-4-cyclobutanecarboxamido-3,4,5-trideoxy-D-glycero-D-galacto-non-2-enonic acid]
NEU1; [1]
  IC50: > 500 µM
NEU3
  IC50: > 500 µM
NEU4
  IC50: > 500 µM

## CC(C)CCC(=O)N[C@H]1[C@H]([C@H](O)[C@H](O)CO)OC(C(=O)O)=C[C@@H]1NC(=N)N [compound 71, 5-(4-methylpentanamido)-2,6-anhydro-4-guanidino-3,4,5-trideoxy-D-glycero-D-galacto-non-2-enonic acid]
NEU1; [1]
  IC50: 14 ± 2 µM
NEU3
  IC50: 150 ± 20 µM
NEU4
  IC50: 47 ± 7 µM

## CCCCC(CC)C(=O)N[C@H]1[C@H]([C@H](O)[C@H](O)CNC(C)=O)OC(C(=O)O)=C[C@@H]1O (mixture of isomers) [compound 73, 5-(2-Ethyl)hexanamido(S/R)-9-acetanamido-2,6-anhydro-3,5-dideoxy-d-glycero-d-galacto-non-2-enonic acid]
NEU1; [1]
  IC50: 1.8 ± 0.2 µM

## CC(=O)N[C@H]1[C@H]([C@H](O)[C@H](O)CO)OC(C(=O)O)=C[C@@H]1NC(=O)C1CC1 [25c, 5-Acetamido-2,6-anhydro-4-cyclopropanecarboxamido-3,4,5-trideoxy-b-glycero-D-galacto-non-2-enonic acid]
NEU1; [1]
  IC50: > 500 µM
NEU3
  IC50: > 500 µM
NEU4
  IC50: > 500 µM

## Nc1ccc(-c2cn(CC(=O)N[C@@H]3C(O)C=C(C(=O)O)OC3C(O)C(O)CO)nn2)cc1 (stereo partly shown) [compound 46]
NEU1; [1]
  IC50: > 500 µM
NEU3
  IC50: 430 ± 100 µM
NEU4
  IC50: 130 ± 20 µM

## CCCCCC(=O)NCC(O)C(O)C1OC(C(=O)O)=CC(O)[C@H]1NC(C)=O (stereo partly drawn) [compound 51, 5-Acetamido-9-hexanamido-2,6-anhydro-3,5-dideoxy-D-glycero-D-galacto-non-2-enonic acid]
NEU1, NEU2, NEU3, NEU4
  Target: NEU1
NEU3
  IC50: 83 ± 9 µM
NEU4
  IC50: 290 ± 30 µM

## [N-]=[N+]=NCC(=O)N[C@@H]1C(O)C=C(C(=O)O)OC1C(O)C(O)CO (stereo partly drawn) [compound 40, 5-(N-2-azidoacetyl)-2,3,5-trideoxy-D-glycero-D-galacto-2-nonulopyranosonic acid]
NEU1; [1]
  IC50: 24 ± 2 µM
NEU3
  IC50: 4.4 ± 0.9 µM
NEU4
  IC50: 5.6 ± 0.8 µM

## CCCCC(=O)N[C@H]1C=C(C(=O)O)O[C@@H]([C@H](O)[C@H](O)CO)[C@@H]1NC(C)=O [25b, 5-Acetamido-2,6-anhydro-4-pentanamido-3,4,5-trideoxy-D-glycero-D-galacto-non-2-enonic acid]
NEU1; [1]
  IC50: > 500 µM
NEU3
  IC50: > 500 µM
NEU4
  IC50: > 500 µM

## CCCCCC(=O)N[C@H]1[C@H]([C@H](O)[C@H](O)CNC(=O)CC)OC(C(=O)O)=C[C@@H]1O [compound 69, 5-Hexanamido-9-propionamido-2,6-anhydro-3,5-dideoxy-d-glycero-d-galacto-non-2-enonic acid]
NEU1, NEU2, NEU3, NEU4; [2]
  Target: NEU1
NEU1; [1]
  IC50: 0.4 ± 0.1 µM
NEU4
  IC50: 270 ± 70 µM

## CCCCCC(=O)N[C@H]1[C@H]([C@H](O)[C@H](O)CO)OC(C(=O)O)=C[C@@H]1O [compound 32, 5-Hexanamido-2,6-anhydro-3,5-dideoxy-D-glycero-D-galacto-non-2-enonic acid]
NEU1, NEU2, NEU3, NEU4; [2]
  Target: NEU1
NEU1; [1]
  IC50: 0.42 ± 0.06 µM
NEU1; target isoenzyme NEU1, 4MU-NANA substrate, read-out: IC50 [μM] NEU1
  IC50: 0.4 µM
NEU4
  IC50: 440 ± 150 µM
